Test results reported in ChEMBL document CHEMBL1137630, “Development of resistance in wild-type and hypermutable Pseudomonas aeruginosa strains exposed to clinical pharmacokinetic profiles of meropenem and ceftazidime simulated in vitro” (Antimicrob Agents Chemother, 2007).
In brackets after ≈: the same amount, converted by molar mass. Activity calls are given as the source filed them. The rule behind the calls is not given here.

Key:
Pseudomonas aeruginosa [1] = assay: Antibacterial activity against Pseudomonas aeruginosa PAO1 assessed as bacterial count in in vitro PK/PD model at 2 g infused every 8 hrs interval measured 40 hrs after first dose relative to initial inoculum; assay type: functional, organism-based
Pseudomonas aeruginosa [2] = assay: microbe, parasite or virus in culture; conditions: isolate 12-09-15
Description: Antibacterial activity against hypermutable Pseudomonas aeruginosa isolate 12-09-15 by CLSI broth microdilution method

Pseudomonas aeruginosa [3] = assay: Antibacterial activity against Pseudomonas aeruginosa PAO1 assessed as maximum bactericidal effect in in vitro PK/PD model by measuring change in bacterial count at 2 g infused every 8 hrs interval measured 17.5 hrs after initial dose relative to initial inoculum
Pseudomonas aeruginosa [4] = assay: Antibacterial activity against Pseudomonas aeruginosa PAO1 at 30 ug/disk in presence of cephalosporinase inhibitor cloxacillin by disk diffusion test; assay type: functional; conditions: read-out: DIZ
Pseudomonas aeruginosa [5] = assay: Antibacterial activity against Pseudomonas aeruginosa PAO1 by CLSI broth microdilution method; assay type: functional
Pseudomonas aeruginosa [6] = assay: Antibacterial activity against Pseudomonas aeruginosa PAO1 in in vitro PK/PD model assessed as AAC (0 to 8 hrs) at 2 g infused thrice daily at 8 hrs interval measured after first dose; assay type: functional
[7] = Cmax in PK/PD in vitro model infused with 2g at 8hr intervals; assay type: ADME; design: dose 2 g; conditions: iv
[8] = Half life in in vitro PK/PD model at 2 g infused thrice daily at 8 hrs interval; assay type: ADME; conditions: iv
[9] = %T>MIC against Pseudomonas aeruginosa PAO1 in in vitro PK/PD model at 2 g infused thrice daily at 8 hrs interval; assay type: functional
Pseudomonas aeruginosa [10] = assay: Antibacterial activity against Pseudomonas aeruginosa PAO1 assessed as reduction of bacterial count in in vitro PK/PD model at 2 g infused every 8 hrs interval measured after second dose relative to initial inoculum; assay type: functional
Pseudomonas aeruginosa [11] = assay: Antibacterial activity against Pseudomonas aeruginosa PAO1/CAZ mutant at 30 ug/disk in absence of cephalosporinase inhibitor cloxacillin by disk diffusion test; assay type: functional; conditions: read-out: DIZ
Pseudomonas aeruginosa [12] = assay: Antibacterial activity against Pseudomonas aeruginosa PAO1 in in vitro PK/PD model assessed as AAC (0 to 24 hrs) at 2 g infused thrice daily at 8 hrs interval; assay type: functional
Pseudomonas aeruginosa [13] = assay: Antibacterial activity against Pseudomonas aeruginosa PAO1 at 30 ug/disk in absence of cephalosporinase inhibitor cloxacillin by disk diffusion test; assay type: functional; conditions: read-out: DIZ
Pseudomonas aeruginosa [14] = assay: Antibacterial activity against Pseudomonas aeruginosa PAO1/CAZ mutant by CLSI broth microdilution method; assay type: functional
Pseudomonas aeruginosa [15] = assay: Antibacterial activity against Pseudomonas aeruginosa PAO1 assessed as reduction of bacterial count in in vitro PK/PD model at 2 g infused every 8 hrs interval measured after first dose relative to initial inoculum; assay type: functional, organism-based
Pseudomonas aeruginosa [16] = assay: Antibacterial activity against Pseudomonas aeruginosa PAO1/CAZ mutant at 30 ug/disk in presence of cephalosporinase inhibitor cloxacillin by disk diffusion test; assay type: functional; conditions: read-out: DIZ
[17] = %T>MIC against hypermutable Pseudomonas aeruginosa 12-09-15 isolate in in vitro PK/PD model at 2 g infused thrice daily at 8 hrs interval; assay type: functional
Pseudomonas aeruginosa [18] = assay: Antibacterial activity against Pseudomonas aeruginosa PAO1/MEM mutant by CLSI broth microdilution method; assay type: functional
Pseudomonas aeruginosa [19] = assay: Antibacterial activity against hypermutable Pseudomonas aeruginosa 12-09-15/MEM mutant by broth microdilution method
Pseudomonas aeruginosa [20] = assay: Antibacterial activity against Pseudomonas aeruginosa PAO1 assessed as reduction of bacterial count in in vitro PK/PD model at 1 g infused every 8 hrs interval measured after second dose relative to initial inoculum; assay type: functional
[21] = Ratio of Cmax in in vitro PK/PD model at 1 g infused at every 8 hrs intervals to MIC for hypermutable Pseudomonas aeruginosa isolate 12-09-15; assay type: functional
Pseudomonas aeruginosa [22] = assay: Antibacterial activity against hypermutable Pseudomonas aeruginosa isolate 12-09-15 assessed as bacterial count in in vitro PK/PD model at 1 g infused every 8 hrs interval measured 40 hrs after first dose relative to initial inoculum; assay type: functional, organism-based
Pseudomonas aeruginosa [23] = assay: Antibacterial activity against hypermutable Pseudomonas aeruginosa isolate 12-09-15 assessed as change in bacterial count in in vitro PK/PD model at 1 g infused every 8 hrs interval measured after 8 hrs relative to initial inoculum; assay type: functional, organism-based
[24] = Cmax in PK/PD in vitro model infused with 1g at 8hr intervals; assay type: ADME; design: dose 1 g; conditions: iv
[25] = %T>MIC against hypermutable Pseudomonas aeruginosa isolate 12-09-15 in in vitro PK/PD model at 1 g infused thrice daily at 8 hrs interval; assay type: functional
Pseudomonas aeruginosa [26] = assay: Antibacterial activity against Pseudomonas aeruginosa PAO1 assessed as maximum bactericidal effect in in vitro PK/PD model by measuring change in bacterial count at 1 g infused every 8 hrs interval measured 1 hr after first dose relative to initial inoculum; assay type: functional
Pseudomonas aeruginosa [27] = assay: Antibacterial activity against hypermutable Pseudomonas aeruginosa isolate 12-09-15 in in vitro PK/PD model assessed as AAC (0 to 24 hrs) at 1 g infused thrice daily at 8 hrs interval; assay type: functional
[28] = %T>MIC against Pseudomonas aeruginosa PAO1 in in vitro PK/PD model at 1 g infused thrice daily at 8 hrs interval; assay type: functional
Pseudomonas aeruginosa [29] = assay: Antibacterial activity against Pseudomonas aeruginosa PAO1 assessed as bacterial count in in vitro PK/PD model at 1 g infused every 8 hrs interval measured 40 hrs after first dose relative to initial inoculum; assay type: functional, organism-based
[30] = Half life in in vitro PK/PD model at 1 g infused thrice daily at 8 hrs interval; assay type: ADME; conditions: iv
Pseudomonas aeruginosa [31] = assay: Antibacterial activity against hypermutable Pseudomonas aeruginosa isolate 12-09-15 assessed as maximum bactericidal effect in in vitro PK/PD model by measuring change in bacterial count at 1 g infused every 8 hrs interval measured 3 hrs after first dose relative to initial inoculum; assay type: functional
Pseudomonas aeruginosa [32] = assay: Antibacterial activity against Pseudomonas aeruginosa PAO1 in in vitro PK/PD model assessed as AAC (0 to 8 hrs) at 1 g infused thrice daily at 8 hrs interval measured after first dose; assay type: functional
[33] = Ratio of Cmax in in vitro PK/PD model at 1 g infused at every 8 hrs intervals to MIC for Pseudomonas aeruginosa PAO1; assay type: functional
Pseudomonas aeruginosa [34] = assay: Antibacterial activity against Pseudomonas aeruginosa PAO1 in in vitro PK/PD model assessed as AAC (0 to 24 hrs) at 1 g infused thrice daily at 8 hrs interval; assay type: functional
Pseudomonas aeruginosa [35] = assay: Antibacterial activity against Pseudomonas aeruginosa PAO1 assessed as change in bacterial count in in vitro PK/PD model at 1 g infused every 8 hrs interval measured after 8 hrs relative to initial inoculum; assay type: functional, organism-based

CC(C)(O/N=C(\C(=O)N[C@@H]1C(=O)N2C(C(=O)[O-])=C(C[n+]3ccccc3)CS[C@H]12)c1csc(N)n1)C(=O)O [CEFTAZIDIME]
Activity (Pseudomonas aeruginosa [1]): inactive | MIC (Pseudomonas aeruginosa [2]): 16 mg/L (≈ 29.3 µM) | deltalog10CFU (Pseudomonas aeruginosa [3]): -1.28 /ml | zone of inhibition at 30 µg/disc (Pseudomonas aeruginosa [4]): 27 mm | MIC (Pseudomonas aeruginosa [5]): 2 mg/L (≈ 3.66 µM) | AAC (Pseudomonas aeruginosa [6]): -0.19 deltalog10CFU/ml.hr | Cmax [7]: 174 µg/mL | half-life [8]: 1.96 h | T>MIC [9]: 100% | fold change (FC) (Pseudomonas aeruginosa [10]): 1 | zone of inhibition at 30 µg/disc (Pseudomonas aeruginosa [11]): 17 mm | AAC (Pseudomonas aeruginosa [12]): 9.29 deltalog10CFU/ml.hr | zone of inhibition at 30 µg/disc (Pseudomonas aeruginosa [13]): 27 mm | MIC (Pseudomonas aeruginosa [14]): 32 mg/L (≈ 58.5 µM) | Activity (Pseudomonas aeruginosa [15]): inactive | zone of inhibition at 30 µg/disc (Pseudomonas aeruginosa [16]): 27 mm | T>MIC [17]: 45.8%

C[C@@H](O)[C@H]1C(=O)N2C(C(=O)O)=C(SCCNC=N)C[C@H]12 [IMIPENEM ANHYDROUS]
MIC (Pseudomonas aeruginosa [2]): 4 mg/L (≈ 13.4 µM) | MIC (Pseudomonas aeruginosa [18]): 16 mg/L (≈ 53.4 µM) | MIC (Pseudomonas aeruginosa [5]): 2 mg/L (≈ 6.68 µM) | MIC (Pseudomonas aeruginosa [19]): 16 mg/L (≈ 53.4 µM)

C[C@H]1COc2c(N3CCN(C)CC3)c(F)cc3c(=O)c(C(=O)O)cn1c23.C[C@H]1COc2c(N3CCN(C)CC3)c(F)cc3c(=O)c(C(=O)O)cn1c23.O [LEVOFLOXACIN]
MIC (Pseudomonas aeruginosa [18]): 0.5 mg/L | MIC (Pseudomonas aeruginosa [5]): 0.5 mg/L | MIC (Pseudomonas aeruginosa [14]): 0.5 mg/L

C[C@@H](O)[C@H]1C(=O)N2C(C(=O)O)=C(S[C@@H]3CN[C@H](C(=O)N(C)C)C3)[C@H](C)[C@H]12 [MEROPENEM]
deltalog10CFU (Pseudomonas aeruginosa [20]): -0.83 /ml | MIC (Pseudomonas aeruginosa [2]): 2 mg/L (≈ 5.22 µM) | MIC (Pseudomonas aeruginosa [18]): 4 mg/L (≈ 10.4 µM) | Ratio [21]: 28.1 | Activity (Pseudomonas aeruginosa [22]): inactive | Activity (Pseudomonas aeruginosa [23]): inactive | Cmax [24]: 56.1 µg/mL | T>MIC [25]: 41.7% | MIC (Pseudomonas aeruginosa [5]): 0.5 mg/L (≈ 1.3 µM) | deltalog10CFU (Pseudomonas aeruginosa [26]): -1.09 /ml | AAC (Pseudomonas aeruginosa [27]): -19.58 deltalog10CFU/ml.hr | T>MIC [28]: 66.7% | Activity (Pseudomonas aeruginosa [29]): inactive | half-life [30]: 0.45 h | deltalog10CFU (Pseudomonas aeruginosa [31]): -1.23 /ml | AAC (Pseudomonas aeruginosa [32]): 5.3 deltalog10CFU/ml.hr | Ratio [33]: 112 | AAC (Pseudomonas aeruginosa [34]): -22.46 deltalog10CFU/ml.hr | MIC (Pseudomonas aeruginosa [19]): 16 mg/L (≈ 41.7 µM) | Activity (Pseudomonas aeruginosa [35]): inactive

CCN1CCN(C(=O)N[C@@H](C(=O)N[C@@H]2C(=O)N3[C@@H]2SC(C)(C)[C@@H]3C(=O)O)c2ccccc2)C(=O)C1=O [PIPERACILLIN]
MIC (Pseudomonas aeruginosa [5]): 4 mg/L (≈ 7.73 µM) | MIC (Pseudomonas aeruginosa [14]): 64 mg/L (≈ 124 µM)
